Assay results from patent US20230414556A1, “NANO-HEPATIC TARGETED EPIGALLOCATECHIN GALLATE IN DYSLIPIDEMIA” (priority 2022, published 2023).
Like-named read-outs stand apart in the source and are kept apart here.

Columns and labels:
[1] = molecular target: T1, Hydroxy-3-methyl-glutaryl-CoA reductase (HMGR) (Homo sapiens, UniProt P04035); settings: competitive binding to the cofactor site; cited from earlier work
T1 sequence (P04035 426-888 limits assumed): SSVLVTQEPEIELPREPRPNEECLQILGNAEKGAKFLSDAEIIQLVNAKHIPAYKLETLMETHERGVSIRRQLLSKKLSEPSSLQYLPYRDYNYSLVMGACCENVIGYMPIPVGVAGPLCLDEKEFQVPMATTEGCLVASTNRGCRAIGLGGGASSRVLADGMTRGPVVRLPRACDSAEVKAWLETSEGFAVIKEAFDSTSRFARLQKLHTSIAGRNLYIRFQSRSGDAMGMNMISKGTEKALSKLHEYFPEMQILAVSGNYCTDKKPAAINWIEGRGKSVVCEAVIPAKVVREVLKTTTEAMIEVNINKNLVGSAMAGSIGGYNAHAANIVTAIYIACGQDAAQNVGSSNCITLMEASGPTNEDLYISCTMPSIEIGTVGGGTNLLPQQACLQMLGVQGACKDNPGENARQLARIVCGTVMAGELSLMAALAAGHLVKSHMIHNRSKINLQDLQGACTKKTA

[2] = cited from earlier work
[3] = Plasma lipid profile in high-fat diet mice (nutritionally induced hypercholesterolemia model); assay type: in vivo, C57BL/6 mice; settings: oral
Method: High fat diet male C57BL/6 mice aged 4-5 weeks and weighing 20-25 g were purchased from Taconic Biosciences, Inc. (Germantown, NY, USA). All animal studies were conducted at the animal facility of the Veteran Affairs Medical Center (VAMC) (Albany, NY, USA) in accordance with institutional guidelines for humane animal treatment and approved by the Institutional Animal Care & Use Committee (IACUC) at VAMC. Animals were maintained under specific pathogen-free conditions and housed under controlled conditions of temperature (20-24° C.) and humidity (60-70%) and 12 h light/dark cycle with ad libitum access to water and food. The mice were grouped into five arms (n=5). Administrated orally to the mice were water for vehicle control (VCtrl), Void nanoparticle (void NP), EGCG (30 mg/kg), Nano EGCG (NP-EGCG) and Nano-targeted EGCG (NPT-EGCG) at 30 mg/kg equivalent EGCG for 3 weeks. Blood was collected from retro-orbital after the 24 h, week 1, week 2 and week 3 treatment to measure the levels of plasma total cholesterol, LDL-C, HDL, free and cholesteryl esters. Animals were humanely sacrificed, and liver tissue was collected. The plasma contents of total cholesterol, LDL-C, HDL-C, free and cholesteryl esters were measured with the Cholesterol-HDL and LDL/VLDL assay kit according to the manufacturer's instructions (Abcam, Boston, MA, USA). Statistical analysis was performed using GraphPad Prism (San Diego, CA, USA) (Wilkinson, 1956). All data are presented as mean±standard deviation of the mean. The Mann-Whitney nonparametric test was used to determine differences in the groups. ***P<0.001, **P<0.01, *P<0.05 were considered as significant.

[4] = 30 mg/kg, week 3, compared to vehicle control and void NP

For (−)-epigallocatechin gallate [EGCG], the “inhibition of in vitro activity of HMGR” value [1] is listed as “potently inhibits”, the “stability of EGCG” value ([2]; acidic solutions (pH<4)) is listed as “very stable” and the “stability of EGCG” value ([2]; neutral and alkaline solutions) is listed as “extremely unstable and degraded almost completely in a few minutes”. For the same substance, the “decrease of plasma total cholesterol” value ([3]; 30 mg/kg (equivalent) EGCG, week 3, compared to vehicle control and void NP) was 28%, the “plasma cholesteryl esters (in words)” value ([3]; 30 mg/kg, week 2 and week 3) was “significant decrease” and the “decrease in plasma LDL-C” value ([3]; 30 mg/kg, week 3) was 3%. For the same substance, the “increase in plasma HDL-C” value ([3]; 30 mg/kg, week 3) was 10%, the “levels of free cholesterol in plasma (in words)” value [3, 4] was “significant decrease” and the “reduction of plasma cholesteryl esters” value [3, 4] was 30%. For the same substance, the “reduction of plasma free cholesterol” value [3, 4] was 11%.
